In patent US7932261B2, “Macrocycle derivatives useful as inhibitors of β-secretase (BACE)” (Janssen Pharmaceutica NV, priority 2006, dated 2011):
Read-outs that look alike come from different tables or passages of the source.

Tests used:
Type in all cases: biochemical
β-secretase (BACE) [1] = biological target: T1, β-secretase (BACE) (Homo sapiens, UniProt P56817); assay: in vitro BACE FS1 % Inhibition Assay (Example 13); conditions: FS1 substrate, pH 5; for % Inhibition (Example 13) @ 0.3 μM / inhibition at 0.3 µM: 0.3 μM compound; for % Inhibition (Example 13) @ 1 μM / inhibition at 1 µM: 1 μM compound; for % Inhibition (Example 13) @ 3 μM / inhibition at 3 µM: 3 μM compound; for inhibition at 0.3 µM: read-out: % Inhibition (Example 13) @ 0.3 μM; for inhibition at 1 µM: read-out: % Inhibition (Example 13) @ 1 μM; for inhibition at 3 µM: read-out: % Inhibition (Example 13) @ 3 μM
T1 construct: purchased Panvera
Procedure: (§1) The following assay buffers were prepared and used in this assay: (1) enzyme assay buffer (0.05 M sodium acetate, pH5, 0.1% PEG8000 (w/v)), (2) substrate assay buffer (0.05 M sodium acetate, pH5), and (3) compound vehicle (30% DMSO in 50 mM HEPES, pH 7.4).
The FS1-substrate stock solution was prepared in DMSO as a 10 mg/mL solution. The FS1-substrate working solution was prepared by diluting the 10 mg/mL stock solution with substrate assay buffer to a final concentration of 300 μg/mL. The α-secretase (BACE) working solution was prepared by diluting a 0.83 mg/mL BACE stock solution with enzyme assay buffer to a final concentration of 4 μg/mL.
Test compounds were dissolved in DMSO to 10 mM.
The screening procedure for this assay was as follows: 15 μL of BACE working solution was pipetted into each well of a 96-well plate. To each well was then pipetted 2 μL of test compound at the selected concentration. Test compound and BACE were then mixed with a pipettor and incubated for 20 min at room temperature. To each well was then added 10 µL of the FS1 substrate working solution. The plates were then incubated for 1 hour at room temperature.
The procedure for the blank (negative control) was as follows. 15 μL of assay buffer was pipetted into each well to be used as a blank control. To each well was then added 2 μL of vehicle and 10 μL of FS1-substrate working solution. The plates were then incubated for 1 hour at room temperature.
The procedure for the positive control was as follows: 15 μL of BACE working solution was pipetted into each well to be used as a positive control. To each well was then pipetted 2 μL of vehicle. Vehicle and BACE were then mixed with a pipettor and incubated for 20 min at room temperature. To each well was then added 10 μL of the FS1 substrate working solution. The plates were then incubated for 1 hour at room temperature.
For test compounds, % inhibition was determined at each concentration as follows: […]

β-secretase (BACE) [2] = biological target: T1, β-secretase (BACE); assay: in vitro BACE Assay, Ki (Example 14)
Procedure: as §1
The FS1-substrate stock solution was prepared in DMSO as a 10 mg/mL solution. The FS1-substrate working solution was prepared by diluting the 10 mg/mL stock solution with substrate assay buffer to a final concentration of 300 μg/mL. The β-secretase (BACE) working solution was prepared by diluting a 0.83 mg/mL BACE stock solution with enzyme assay buffer to a final concentration of 4 μg/mL.
Test compounds were dissolved in DMSO at 10 mM.
The procedure for this assay was as follows: 15 μL of BACE working solution was pipetted into each well of a 96-well plate. To each well was then pipetted 2 μL of test compound at the selected concentration. Test compound and BACE were then mixed with a pipettor and incubated for 20 min at room temperature. To each well was then added 10 μL of the FS1 substrate working solution.
The procedure for the positive control was as follows: 15 μL of BACE working solution was pipetted into each well to be used as a positive control. To each well was then pipetted 2 μL of vehicle. Vehicle and BACE were then mixed with a pipettor and incubated for 20 min at room temperature. To each well was then added 10 μL of the FS1 substrate working solution.
For test compounds, Ki inhibition was determined as follows: For each compound concentration and positive control, rate of cleavage of substrate (Vi, where i=compound concentration in μM) was determined as Δ Fluorescence/Δ time (min). Cleavage rates (Vi) were plotted as a function of inhibitor concentration in μM [I]. The Ki was then determined by fitting the following equation to the graph of [I] vs. Vi Y=aVmax/(50+24*(1+X/Ki)),

human BACE-1 = human BACE-1 (Homo sapiens, UniProt P56817); assay: in vitro BACE Assay run by CEREP (Example 15); conditions: for inhibition at 0.3 µM / % Inhibition 0.3 μM: 0.3 μM compound; for inhibition at 1 µM: 1 μM compound
Procedure: More specifically the assay, run at 50 μL in a 96 well plate, evaluated the effect of test compound on the activity of the human BACE-1 quantified by measuring the formation of Mca-S-E-V—N-L-NH2 from Mca-S-E-V—N-L-D-A-E-F—R—K(Dnp)-R—R—NH2, using a recombinant enzyme.
The test compound, reference compound or water (control) was added to a buffer containing 0.09 M sodium acetate (pH 4.5) and 0.25 μg BACE-1. Compound interference with the fluorimetric detection method due to autofluorescence was then checked by measurements at the wavelengths defined to evaluate the enzyme activity. […] For control basal measurement, the substrate was omitted from the reaction mixture. […] The standard inhibitory reference compound was OM99-2, which was tested in each experiment at several concentrations to obtain an inhibition curve from which its IC50 value was calculated.

[3] = recombinant enzyme, pH 4.5, 60 min at 37° C.
[4] = recombinant enzyme, pH 4.5, 60 min at 37° C., read-out: IC50

human BACE-1, sequence (P56817 46-501): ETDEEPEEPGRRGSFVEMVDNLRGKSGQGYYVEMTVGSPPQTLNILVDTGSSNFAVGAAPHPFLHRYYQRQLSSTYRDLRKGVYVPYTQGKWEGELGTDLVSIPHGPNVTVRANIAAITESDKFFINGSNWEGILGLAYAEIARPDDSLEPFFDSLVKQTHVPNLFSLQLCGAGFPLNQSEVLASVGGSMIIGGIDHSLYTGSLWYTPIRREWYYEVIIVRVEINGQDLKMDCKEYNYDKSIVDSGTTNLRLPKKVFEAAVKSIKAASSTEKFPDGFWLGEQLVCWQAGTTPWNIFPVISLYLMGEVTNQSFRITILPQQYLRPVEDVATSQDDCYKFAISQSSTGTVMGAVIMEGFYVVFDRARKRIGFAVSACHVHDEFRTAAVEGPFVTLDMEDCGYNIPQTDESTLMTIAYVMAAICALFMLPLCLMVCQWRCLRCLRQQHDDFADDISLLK
T1 sequence (P56817 46-501): as above

## CC(C)[C@@H]1CC(=O)N(C2CCCCC2)CCCc2cccc(c2)Oc2ccc3c(c2)CN1C(N)=N3 [Compound 3]
β-secretase (BACE) [1]
  % Inhibition (Example 13) @ 0.3 μM: 9%
  % Inhibition (Example 13) @ 1 μM: 7%
  % Inhibition (Example 13) @ 3 μM: 29%

## NC1=Nc2ccc3cc2CN1CCCCC(=O)N(C1CCCCC1)CCCc1cccc(c1)O3 [Compound 4]
β-secretase (BACE) [1]
  inhibition at 0.3 µM: 100%
  inhibition at 1 µM: 115%
  inhibition at 3 µM: 120%
β-secretase (BACE) [2]
  Ki: 0.044 µM

## CC(C)[C@H]1CC(=O)N(C2CCCCC2)CCCc2cccc(c2)Oc2ccc3c(c2)CN1C(N)=N3 [Compound 5]
β-secretase (BACE) [1]
  % Inhibition (Example 13) @ 0.3 μM: 3%
  % Inhibition (Example 13) @ 1 μM: −6%
  % Inhibition (Example 13) @ 3 μM: 43%

## NC1=Nc2ccc3cc2CN1CCCNC(=O)CCc1cccc(c1)O3 [Compound 7]
β-secretase (BACE) [1]; 0.3 µM
  % Inhibition (Example 13) @ 0.3 μM: 39%
β-secretase (BACE) [1]; 1 µM
  % Inhibition (Example 13) @ 1 μM: 36%
β-secretase (BACE) [1]; 3 µM
  % Inhibition (Example 13) @ 3 μM: 37%

## NC1=Nc2ccc3cc2CN1CCCNC(=O)CCc1cccc(c1)O3 [Compound 9]
β-secretase (BACE) [1]; 0.3 µM
  % Inhibition (Example 13) @ 0.3 μM: −26%
β-secretase (BACE) [1]; 1 µM
  % Inhibition (Example 13) @ 1 μM: −21%
β-secretase (BACE) [1]; 3 µM
  % Inhibition (Example 13) @ 3 μM: 1%

## NC1=Nc2ccc3cc2CN1CCN(C(=O)C1CCCCC1)CCCc1cccc(c1)O3 [Compound 10]
β-secretase (BACE) [1]
  % Inhibition (Example 13) @ 0.3 μM: −9%
  % Inhibition (Example 13) @ 1 μM: 5%
  % Inhibition (Example 13) @ 3 μM: 7%

## NC1=Nc2ccc3cc2CN1CCNC(=O)CCC/C=C/c1ccccc1-3 [Compound 11]
β-secretase (BACE) [1]
  inhibition at 0.3 µM: -12%
  inhibition at 1 µM: 23%
  inhibition at 3 µM: 65%

## NC1=Nc2ccc3cc2CN1CCCNC(=O)Cc1cccc(c1)O3 [Compound 12]
β-secretase (BACE) [1]
  % Inhibition (Example 13) @ 0.3 μM: −18%
  % Inhibition (Example 13) @ 1 μM: −0.4%
  % Inhibition (Example 13) @ 3 μM: 11%

## NC1=Nc2ccc3cc2CN1CCN(C1CCCCC1)C(=O)CCc1cccc(c1)O3 [Compound 15]
β-secretase (BACE) [1]
  % Inhibition (Example 13) @ 0.3 μM: −36%
  % Inhibition (Example 13) @ 1 μM: −31%
  % Inhibition (Example 13) @ 3 μM: 10%

## NC1=Nc2ccc3cc2CN1[C@@H](C1CCCCC1)CNC(=O)CCc1cccc(c1)O3 [Compound 16]
β-secretase (BACE) [1]
  % Inhibition (Example 13) @ 0.3 μM: 39%
  % Inhibition (Example 13) @ 1 μM: 37%
  % Inhibition (Example 13) @ 3 μM: 61%

## NC1=Nc2cc(F)c3cc2CN1[C@H](C1CCCCC1)CCC(=O)N(C1CCCCC1)CCc1cccc(c1)O3 [Compound 17]
β-secretase (BACE) [1]
  inhibition at 0.3 µM: 139%
  inhibition at 1 µM: 145%
  inhibition at 3 µM: 151%
β-secretase (BACE) [2]
  Ki: 0.0076 µM

## COc1cc2c3cc1Oc1cccc(c1)CCN(C1CCCCC1)C(=O)CC[C@@H](C1CCCCC1)N(C3)C(N)=N2 [Compound 18]
β-secretase (BACE) [1]
  inhibition at 0.3 µM: 95%
  inhibition at 1 µM: 107%
  inhibition at 3 µM: 115%

## NC1=Nc2ccc3cc2CN1[C@@H](C1CCCCC1)CCCN(C1CCCCC1)CCCc1cccc(c1)O3 [Compound 19]
β-secretase (BACE) [1]
  inhibition at 0.3 µM: 35%
  inhibition at 1 µM: 55%
  inhibition at 3 µM: 93%
β-secretase (BACE) [2]
  Ki: 0.4 µM

## CC(C)[C@@H]1CCC(=O)N(C2CCOCC2)CCc2cccc(c2)Oc2ccc3c(c2)CN1C(N)=N3 [Compound 20]
β-secretase (BACE) [2]; read-out: (Example 14) Ki, FS1 substrate 50 μM, Km 24 μM, pH 5
  Ki: 0.022 µM

## CC(C)C1CCC(=O)N(C2CCC(O)CC2)CCc2cccc(c2)Oc2ccc3c(c2)CN1C(N)=N3 (centres unmarked) [Compound 26]
β-secretase (BACE) [1]
  % Inhibition (Example 13) @ 0.3 μM: −8%
  % Inhibition (Example 13) @ 1 μM: 23%
  % Inhibition (Example 13) @ 3 μM: 58%

## CCOC(=O)C1CCC(N2CCc3cccc(c3)Oc3ccc4c(c3)CN(C(N)=N4)[C@H](C(C)C)CCC2=O)CC1 (some centres unmarked) [Compound 28]
β-secretase (BACE) [1]
  % Inhibition (Example 13) @ 0.3 μM: 4%
  % Inhibition (Example 13) @ 1 μM: 59%
  % Inhibition (Example 13) @ 3 μM: 110%

## NC1=Nc2ccc3cc2CN1[C@H](C1CCCCC1)CCC(=O)N([C@H]1CC[C@@H](C(=O)O)CC1)CCc1cccc(c1)O3 [Compound 29]
β-secretase (BACE) [1]
  inhibition at 0.3 µM: 120%
  inhibition at 1 µM: 116%
  inhibition at 3 µM: 125%

## CC(C)[C@@H]1CCC(=O)Nc2ccc3ccc(cc3c2)Oc2ccc3c(c2)CN1C(N)=N3 [Compound 31]
β-secretase (BACE) [1]
  % Inhibition (Example 13) @ 0.3 μM: 14%
  % Inhibition (Example 13) @ 1 μM: 16%
  % Inhibition (Example 13) @ 3 μM: −15%

## NC1=Nc2cnc3cc2CN1[C@H](C1CCCCC1)CCC(=O)N(C1CCCCC1)CCc1cccc(c1)O3 [Compound 32]
Human BACE-1
  IC50: 0.055 µM
Human BACE-1; [3]
  inhibition at 0.3 µM: 99%

## NC1=Nc2cnc3cc2CN1C(C1CCCCC1)CCC(=O)N(C1CCC(C(=O)O)CC1)CCc1cccc(c1)O3 (centres unmarked) [Compound 33]
Human BACE-1; [3]
  % Inhibition 0.3 μM: 15%

## NC1=Nc2cnc3cc2CN1[C@H](C1CCCCC1)CCC(=O)N([C@H]1CC[C@@H](O)CC1)CCc1cccc(c1)O3 [Compound 34]
Human BACE-1; [3]
  inhibition at 0.3 µM: 86%
Human BACE-1; [4]
  IC50: 0.21 µM

## NC1=Nc2ccc3cc2CN1[C@H](C1CCCCC1)CCC(=O)N([C@H]1CC[C@@H](O)CC1)CCc1cccc(c1)O3 [Compound 35]
Human BACE-1; [3]
  inhibition at 0.3 µM: 93%
Human BACE-1; [4]
  IC50: 0.083 µM

## CC(C)[C@@H]1CCC(=O)N(C2CCCCC2)C2CCc3ccc(cc32)Oc2ccc3c(c2)CN1C(N)=N3 (some centres unmarked) [Compound 36]
Human BACE-1; [3]
  % Inhibition 0.3 μM: 74%
Human BACE-1; [4]
  IC50: 0.15 µM

## NC1=Nc2cnc3cc2CN1[C@H](C1CCCCC1)CCC(=O)N(C1CCCC1)CCc1cccc(c1)O3 [Compound 37]
Human BACE-1; [3]
  inhibition at 0.3 µM: 100%
Human BACE-1; [4]
  IC50: 0.07 µM

## NC1=Nc2cnc3cc2CN1[C@H](C1CCCCC1)CCC(=O)N(CC1CC1)CCc1cccc(c1)O3 [Compound 38]
Human BACE-1; [3]
  inhibition at 0.3 µM: 97%
Human BACE-1; [4]
  IC50: 0.067 µM

## Nc1nc2ccc3cc2cc1C(C1CCCCC1)C/C=C/C(=O)N(C1CCCCC1)CCc1cccc(c1)O3 (centres unmarked) [Compound 39]
Human BACE-1; [3]
  inhibition at 1 µM: 53%
Human BACE-1; [4]
  IC50: 0.81 µM

## Nc1nc2ccc3cc2cc1C(C1CCCCC1)CCCC(=O)N(C1CCCCC1)CCc1cccc(c1)O3 (centres unmarked) [Compound 40]
Human BACE-1; [3]
  inhibition at 1 µM: 13%
